From PMC3912015, “Synthetic Multivalent Antifungal Peptides Effective against Fungi” (PLoS ONE, 2014)
Converted amounts (≈) assume the structure as drawn. Bridge positions count the residues as written; N and C are the ends. Peptide text beside a SMILES is read from it. I, II: the chains in the order shown.

Tests used:
[1] = test system: F. solani DM3782; test: microbe, parasite or virus in culture; type: cell-based; settings: 48 h
[2] = test system: clinical isolates of C. albicans 2672R and C. albicans 1976R; test: MIC against two clinical isolates, with or without 5% human serum; type: cell-based; settings: 48 h
Procedure: The yeast strains were cultivated and suspended in Sabouraud’s Dextrose (SD) broth diluted to one sixth at a starting OD600 = ∼0.08 in a flat-bottomed microtitre plate. A serial dilution of peptide in the same broth was mixed with the inoculum to give a final peptide concentration of 0.4–22 µM. The antifungal activity was assessed by monitoring the OD600 in cycles of 30 minutes and an orbital shaking at 100 rpm using an Infinite M200 microplate reader (Tecan Group Ltd., Switzerland) for 24/48 h at 37°C. Cultures without peptides were used as positive controls and broth alone or with 22 µM peptide served as negative controls. The minimum concentration required for complete inhibition was assessed by both visible observations as well as by measuring the OD600 and taken as the MIC. Each experiment was repeated in triplicates. For studying the effects of metal ions, SD broth was adjusted with appropriate concentrations of salts to yield a final concentration of 100 and 135 mM for NaCl and KCl and 0.5–2 mM for CaCl2 and MgCl2. MIC determinations were carried out as described above. C. albicans ATCC10231 cells and salts in broth were taken as a positive control. Salts alone (NaCl, KCl, and CaCl2 and MgCl2) in broth or with 22 µM peptide served as a negative control. The effect of 5% human serum on the activities of B4010 against two C. albicans clinical isolates was determined. The human male serum was centrifuged at 13,000 rpm for 10 mins in order to remove the lipids and the supernatant was collected. The MIC values against clinical isolates of C. albicans 2672R and C. albicans 1976R were determined both in standard medium (SD broth) as well as in standard medium containing 5% serum supernatant as before.

[3] = Intact peptide after trypsin incubation (mass spectrometry); type: in vitro ADME; settings: 6 h incubation with trypsin
Procedure: For all the experiments, unless otherwise stated, C. albicans ATCC 10231 strain was used. B4010 (1 mg/mL) was incubated with trypsin (enzyme:peptide ratio 1∶100) at 37°C. 20 µL aliquot of this mixture was withdrawn at various time intervals (0.5, 1, 2, 4 and 6 h) and mixed with 1 µL of trypsin inhibitor. The antifungal activity of the peptide was determined by adding this mixture to 180 µL of inoculum and monitoring the growth at OD600 for 24 h. Similar experiments performed in the presence of trypsin/trypsin inhibitor (without B4010) were used as a positive control. For assessing the antifungal activity in TF, the peptide was dissolved in freshly collected rabbit TF and incubated at 37°C for 6 h. After incubation, an equal volume of an overnight culture of C. albicans (∼10^6 CFU/mL) was mixed with peptides in tear fluid and incubated at 37°C for 24 h. The final concentrations of the peptide were at 4.4, 8.8 and 22 µM. A 100 µL aliquot of serial dilutions (10^2 or 10^3 times) of this mixture were inoculated on a SD agar plate and then incubated for 48 h at 37°C. Culture alone and culture with 50% tear fluid served as the positive control. The data was expressed in % killing with respect to culture without tear fluid.
Supplementary file pone.0087730.s002.tif: Figure S2 Positive charge electrospray ionization mass spectrometry of B4010 after incubation with trypsin (enzyme:B4010 = 1∶100). […]

[4] = test system: C57BL6 wild type mice; test: In vivo acute toxicity
Procedure: Acute toxicity of B4010 was assessed with C57BL6 (6–8 weeks old) wild type mice. Two healthy wild type mice were chosen for each routes of administration. B4010 was delivered through intra-peritoneal (200 mg/kg) or (100 mg/kg) intra-venous routes. Two animals were used for each administration and monitored through 24/48 h to determine mortality, or signs of toxicity.

[5] = type: biochemical
Procedure: Small unilamellar vesicles (SUVs) were prepared using PC/PE/PI or PS lipids (5∶2.5∶2.5) containing 15 wt% ergosterol or PC/Cholesterol (10∶1). For the preparation of PC/PE/PI or PS/Erg SUV, the lipids were dissolved in chloroform/methanol (2∶1, v/v) in a glass tube. Ergosterol was dissolved in same solvent and added to lipid mixture to make final ergosterol content of 15 wt%. The Lipid-ergosterol mixture was dried using nitrogen gas to form lipid layer. The film was hydrated in a buffer containing 20 mM PBS (pH 7), vortexed and sonicated. Each cycle of sonication (5 sec, 40°C) was followed by freezing in liquid nitrogen and thawing on a water bath kept at 37°C. The procedure was repeated 5–6 times until an optically clear dispersion appeared. The SUV was divided into two parts. To the first part 50 mM calcein was added and incubated for 1 h. The excess calcein was removed by injecting 100 µL of the calcien-loaded SUV’s into a Ultrahydrogel™ 250 (7.8 mm × 300 mm) column equilibrated with 20 mM PBS (pH 7.0) and eluted isochratically at a flow rate of 1 mL/min for 1.5 column volumes. The calcein-loaded liposomes were mixed with calcein-free liposome (1∶1) to adjust final liposome concentration. Peptide concentration was added to obtain 1∶30 or 1∶15 peptide:liposome ratio. Changes in the fluorescence signal after addition of peptide or Triton X-100 was measured on a PTI spectrofluorometer, using an excitation wavelength of 480 nm and emission wavelength of 512 nm. The Percentage calcein released at each time point was calculated using the equation, [drawing 1]
Where A0 is the observed fluorescence intensity upon addition of peptides, Amin is the average intensity at the baseline (before peptide addition), Amax is the average intensity at the saturation phase after adding 1% Triton X-100. Similar protocol was followed for the preparation of PC/Cholesterol SUVs.

CC(C)[C@H](NC(=O)[C@H](CCCCN)NC(=O)[C@H](CCCNC(=N)N)NC(=O)CNC(=O)[C@@H](N)CCCNC(=N)N)C(=O)N[C@H](C(=O)N[C@@H](CCCNC(=N)N)C(=O)N[C@@H](CCCNC(=N)N)C(=O)NCCCC[C@H](NC(=O)[C@H](CCCNC(=N)N)NC(=O)[C@H](CCCNC(=N)N)NC(=O)[C@@H](NC(=O)[C@@H](NC(=O)[C@H](CCCCN)NC(=O)[C@H](CCCNC(=N)N)NC(=O)CNC(=O)[C@@H](N)CCCNC(=N)N)C(C)C)C(C)C)C(=O)NCCCC[C@H](NC(=O)[C@H](CCCCNC(=O)[C@H](CCCNC(=N)N)NC(=O)[C@H](CCCNC(=N)N)NC(=O)[C@@H](NC(=O)[C@@H](NC(=O)[C@H](CCCCN)NC(=O)[C@H](CCCNC(=N)N)NC(=O)CNC(=O)[C@@H](N)CCCNC(=N)N)C(C)C)C(C)C)NC(=O)[C@H](CCCNC(=N)N)NC(=O)[C@H](CCCNC(=N)N)NC(=O)[C@@H](NC(=O)[C@@H](NC(=O)[C@H](CCCCN)NC(=O)[C@H](CCCNC(=N)N)NC(=O)CNC(=O)[C@@H](N)CCCNC(=N)N)C(C)C)C(C)C)C(=O)N[C@@H](CCCCN)C(=O)O)C(C)C [B4010] (I: H-RGRKVVRRKKK-OH / II: H-RGRKVVRRK / III: H-RGRKVVRR / IV: H-RGRKVVRR; amide I:9-IV:C, I:10-II:C, II:9-III:C; N-terminus and C-terminus assumed)
MIC [1]: 1.4 µM (≈ 6.39 µg/mL) | MIC [2]: 0.37 µM (≈ 1.69 µg/mL) | remaining at 6 h, 1 mg/mL [3]: ~20% | acute toxicity ([4]; IP 200 mg/kg): no sign of mortality, morbidity or toxicity | acute toxicity ([4]; IV 100 mg/kg): no sign of mortality, morbidity or toxicity | % Calcein released from PC/PE/PS/Erg [5]: ~68% | dye (calcein) release [5]: ~46%
